Here are results for 13 molecules from ChEMBL document CHEMBL2150976, “Camptothecins in tumor homing via an RGD sequence mimetic” (Bioorg Med Chem Lett, 2012).

Data set [1] concerns PC-3. The data set can be described thus: Cytotoxicity against human PC3 cells expressing […] integrin assessed as cell survival after 72 hrs by SRB assay. Type of data set: functional, cell-based. The settings on record: PC-3, 72 h.
For data set [2], the target named is T1, Integrin alpha-V/beta-3 (Homo sapiens, UniProt P05106+P06756). Kind of data set: Inhibition of vitronectin binding to human alphaVbeta3 integrin expressed in PC3 cells. The class given is cell-based, PC-3.
T1 sequence (P05106 27-788 limits assumed): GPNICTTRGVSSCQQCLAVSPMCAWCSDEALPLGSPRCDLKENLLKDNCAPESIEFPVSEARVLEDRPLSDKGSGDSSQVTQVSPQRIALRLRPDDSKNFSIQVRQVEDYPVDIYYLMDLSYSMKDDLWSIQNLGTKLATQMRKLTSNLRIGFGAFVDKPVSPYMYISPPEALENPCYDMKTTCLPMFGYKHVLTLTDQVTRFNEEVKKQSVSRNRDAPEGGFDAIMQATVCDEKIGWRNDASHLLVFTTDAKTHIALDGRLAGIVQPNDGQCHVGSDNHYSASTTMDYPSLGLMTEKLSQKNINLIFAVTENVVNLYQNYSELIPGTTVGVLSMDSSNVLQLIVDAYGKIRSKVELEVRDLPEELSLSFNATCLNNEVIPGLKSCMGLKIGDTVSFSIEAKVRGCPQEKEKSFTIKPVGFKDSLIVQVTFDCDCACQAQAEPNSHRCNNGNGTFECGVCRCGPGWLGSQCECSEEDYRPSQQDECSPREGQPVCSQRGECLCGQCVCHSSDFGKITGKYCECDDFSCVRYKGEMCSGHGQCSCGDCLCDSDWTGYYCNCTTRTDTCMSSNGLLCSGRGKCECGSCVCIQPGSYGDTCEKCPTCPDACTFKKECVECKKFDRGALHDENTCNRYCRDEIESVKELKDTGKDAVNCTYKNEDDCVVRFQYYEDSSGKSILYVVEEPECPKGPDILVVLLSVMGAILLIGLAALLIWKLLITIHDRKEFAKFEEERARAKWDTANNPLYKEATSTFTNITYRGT
T1 sequence (P06756 31-889 limits assumed): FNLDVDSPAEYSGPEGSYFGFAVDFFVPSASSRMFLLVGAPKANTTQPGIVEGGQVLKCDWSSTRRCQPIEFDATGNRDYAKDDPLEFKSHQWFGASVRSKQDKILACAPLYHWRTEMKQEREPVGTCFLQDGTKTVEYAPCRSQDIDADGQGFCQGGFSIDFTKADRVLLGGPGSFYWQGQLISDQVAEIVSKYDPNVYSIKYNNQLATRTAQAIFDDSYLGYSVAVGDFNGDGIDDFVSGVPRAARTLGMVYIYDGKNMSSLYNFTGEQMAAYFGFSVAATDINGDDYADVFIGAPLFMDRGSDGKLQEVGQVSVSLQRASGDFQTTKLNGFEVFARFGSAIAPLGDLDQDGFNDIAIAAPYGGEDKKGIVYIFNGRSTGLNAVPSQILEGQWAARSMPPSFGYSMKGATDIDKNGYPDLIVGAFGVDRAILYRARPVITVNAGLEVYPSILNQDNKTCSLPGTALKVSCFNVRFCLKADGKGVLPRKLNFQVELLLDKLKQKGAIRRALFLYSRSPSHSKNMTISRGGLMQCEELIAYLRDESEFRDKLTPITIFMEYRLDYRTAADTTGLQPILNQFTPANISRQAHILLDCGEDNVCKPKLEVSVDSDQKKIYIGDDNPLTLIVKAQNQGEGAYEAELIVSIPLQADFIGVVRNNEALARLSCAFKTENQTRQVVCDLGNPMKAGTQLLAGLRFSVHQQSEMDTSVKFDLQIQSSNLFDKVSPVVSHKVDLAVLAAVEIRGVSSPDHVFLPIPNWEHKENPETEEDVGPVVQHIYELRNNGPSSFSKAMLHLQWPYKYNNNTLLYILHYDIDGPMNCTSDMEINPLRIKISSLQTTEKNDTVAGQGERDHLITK
T1 sequence (P06756 891-1048 limits assumed): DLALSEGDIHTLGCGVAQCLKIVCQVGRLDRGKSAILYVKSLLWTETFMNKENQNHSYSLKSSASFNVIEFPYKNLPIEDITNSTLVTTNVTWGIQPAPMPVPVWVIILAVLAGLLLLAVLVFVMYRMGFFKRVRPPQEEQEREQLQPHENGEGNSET
Data set [3] addresses T1, Integrin alpha-V/beta-3. Kind of data set: Inhibition of vitronectin binding to human alphaVbeta3 integrin over expressed in A2780 cells. The class given is cell-based.
For data set [4], the system named is A2780. The data set can be described thus: Cytotoxicity against human A2780 cells overexpressing […] integrin assessed as cell survival after 72 hrs by SRB assay. Type of data set: functional, cell-based. The settings on record: A2780, 72 h.
Data set [5] deals with Integrin alpha-V/beta-5 (Homo sapiens, UniProt P06756+P18084). Kind of data set: Displacement of [125I]echistatin from integrin […] after 3 hrs by gamma counter. The class given is protein-complex assay.
Chain of Integrin alpha-V/beta-5 (P06756 31-889 limits assumed): as the sequence (P06756 31-889 limits assumed) above
Chain of Integrin alpha-V/beta-5 (P06756 891-1048 limits assumed): as the sequence (P06756 891-1048 limits assumed) above
Chain of Integrin alpha-V/beta-5 (P18084 24-799 limits assumed): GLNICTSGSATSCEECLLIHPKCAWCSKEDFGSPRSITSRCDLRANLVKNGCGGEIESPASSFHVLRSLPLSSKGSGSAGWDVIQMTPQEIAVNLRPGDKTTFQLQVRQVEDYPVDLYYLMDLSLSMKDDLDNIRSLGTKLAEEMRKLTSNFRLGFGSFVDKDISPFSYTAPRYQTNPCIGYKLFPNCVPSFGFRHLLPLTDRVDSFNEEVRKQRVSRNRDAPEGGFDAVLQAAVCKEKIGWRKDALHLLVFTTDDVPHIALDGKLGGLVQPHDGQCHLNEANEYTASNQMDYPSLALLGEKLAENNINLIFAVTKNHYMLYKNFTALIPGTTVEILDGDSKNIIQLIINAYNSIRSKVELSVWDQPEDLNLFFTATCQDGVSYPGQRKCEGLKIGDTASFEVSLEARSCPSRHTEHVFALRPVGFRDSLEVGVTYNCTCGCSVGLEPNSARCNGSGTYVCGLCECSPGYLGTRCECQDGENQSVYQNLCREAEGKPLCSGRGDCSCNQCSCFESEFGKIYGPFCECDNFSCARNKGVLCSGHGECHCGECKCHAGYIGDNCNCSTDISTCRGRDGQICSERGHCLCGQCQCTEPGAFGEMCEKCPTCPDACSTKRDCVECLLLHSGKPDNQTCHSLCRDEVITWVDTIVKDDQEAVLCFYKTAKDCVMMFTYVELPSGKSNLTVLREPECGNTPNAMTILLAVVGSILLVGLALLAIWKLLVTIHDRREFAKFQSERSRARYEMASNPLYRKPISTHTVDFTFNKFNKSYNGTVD
Data set [6] addresses T1, Integrin alpha-V/beta-3. Kind of data set: Displacement of [125I]echistatin from integrin […] after 3 hrs by gamma counter. Type of data set: protein-complex assay.
The nature of data set [7]: Half life in rat plasma at 5 uM after 24 hrs by HPLC analysis. The class given is ADME, cell-free.
Data set [8] has as its system Mus musculus. The data set can be described thus: Toxicity in CD1 nude mouse xenografted with human PC3 cells assessed as body weight loss at 60 mg/10 mL/kg, ip q4d x 4 schedule administered on day 3 of tumor implantation measured after 31 days post tumor implantation. Type of data set: organism-based, PC-3. The settings on record: in vivo, 744 h.
For data set [9], the system named is A498. Kind of data set: Antitumor activity against human A498 cells xenografted in CD1 nude mouse assessed as tumor volume inhibition at 55 mg/10 mL/kg, ip q4d x 8 schedule administered on day 3 of tumor implantation measured after 10 days. The class given is functional.
Data set [10] deals with PC-3. Kind of data set: Antimetastatic activity against human PC3 cells xenografted in CD1 nude mouse assessed as increase in life span at 60 mg/10 mL/kg, ip q4d x 4 schedule administered on day 3 of tumor implantation measured after 31 days post tumor implantation. The class given is functional.
In data set [11] the test system is Mus musculus. The data set can be described thus: Toxicity in CD1 nude mouse xenografted with human A498 cells assessed as body weight loss at 55 mg/10 mL/kg, ip q4d x 8 schedule administered on day 3 of tumor implantation measured after 10 days. Type of data set: organism-based. The settings on record: in vivo, 240 h.
The test system of data set [12] is Mus musculus. The data set can be described thus: Toxicity in CD1 nude mouse xenografted with human A498 cells assessed as mortality at 55 mg/10 mL/kg, ip q4d x 8 schedule administered on day 3 of tumor implantation measured after 10 days. Type of data set: organism-based. The settings on record: in vivo, 240 h.
In data set [13] the test system is Mus musculus. The data set can be described thus: Toxicity in CD1 nude mouse xenografted with human PC3 cells assessed as mortality at 60 mg/10 mL/kg, ip q4d x 4 schedule administered on day 3 of tumor implantation measured after 31 days post tumor implantation. The settings on record: in vivo, 744 h. The class given is organism-based, PC-3.
Data set [14] relates to PC-3. Kind of data set: Antimetastatic activity against human PC3 cells xenografted in CD1 nude mouse assessed as area of metastases at 60 mg/10 mL/kg, ip q4d x 4 schedule administered on day 3 of tumor implantation measured after 31 days post tumor implantation. The class given is functional.
In data set [15] the test system is PC-3. The data set can be described thus: Antimetastatic activity against human PC3 cells xenografted in CD1 nude mouse assessed as median survival time at 60 mg/10 mL/kg, ip q4d x 4 schedule administered on day 3 of tumor implantation measured after 31 days post tumor implantation. The class given is functional.

For the molecule `CC[C@@]1(O)C(=O)OCc2c1cc1n(c2=O)Cc2cc3c(CN(C)C)c(OC(=O)N4CCN(C(=O)c5ccc(COC(=O)N[C@@H](CCC(=O)N6CCN(c7cccc(NC8=NCCCN8)c7)CC6)C(=O)O)cc5)CC4)ccc3nc2-1`, the concentration for half-maximal inhibition (IC50) in data set [1] is over 1000 nM; in data set [2] it was 540 nM; in data set [3], 1000 nM; in data set [4] it was 570 nM; in [5] it was 0.73 nM; in [6], 4.97 nM.
On to `CC[C@@]1(O)C(=O)OCc2c1cc1n(c2=O)Cc2cc3cc(O)ccc3nc2-1` [HYDROXYCAMPTOTHECIN], for which the half-maximal inhibitory concentration (IC50) stood at 78 nM in [1] and 4 nM in [4].
`COC(=O)c1ccc(CNC(=O)N[C@@H](CCC(=O)N2CCN(c3cccc(N=C4NCCCN4)c3)CC2)C(=O)O)cc1` gave an IC50 in data set [6] of 109 nM.
For the molecule `O=C(N[C@@H](CCC(=O)N1CCN(c2cccc(NC3=NCCCN3)c2)CC1)C(=O)O)OCc1ccccc1`, the IC50 in data set [6] was found to be 3.26 nM.
For the molecule `CCc1c2c(nc3ccc(O)cc13)-c1cc3c(c(=O)n1C2)COC(=O)[C@]3(O)CC` [7-ETHYL-10-HYDROXYCAMPTOTHECIN], the IC50 was determined as 2.6 nM in data set [1] and 9 nM in [4].
Regarding `CC[C@@]1(O)C(=O)OCc2c1cc1n(c2=O)Cc2c-1nc1ccc(O)cc1c2/C=N/OC(C)(C)C`, the 50% inhibitory concentration (IC50) was 15 nM in [1] and 0.4 nM in data set [4].
Molecule `N[C@@H](CCC(=O)N1CCN(c2cccc(NC3=NCCCN3)c2)CC1)C(=O)O` had an IC50 in data set [6] of 800 nM.
For the molecule `CC[C@@]1(O)C(=O)OCc2c1cc1n(c2=O)Cc2cc3cc(OC(=O)N4CCN(C(=O)c5ccc(COC(=O)N[C@@H](CCC(=O)N6CCN(c7cccc(NC8=NCCCN8)c7)CC6)C(=O)O)cc5)CC4)ccc3nc2-1`, the concentration for half-maximal inhibition (IC50) in data set [1] was over 1000 nM; in [2] it was 350 nM; in data set [3] it was 730 nM; in data set [4] it was 110 nM; in data set [5], 2.05 nM; in data set [6] it was 2.28 nM.
On to `O=C(N[C@@H](CCC(=O)N1CCN(c2cccc(N=C3NCCCN3)c2)CC1)C(=O)O)OCc1ccc(C(=O)O)cc1`, for which the IC50 in data set [2] is 6.3 nM; in data set [3] it was 17 nM; in [5] it was 2.2 nM; in data set [6], 0.082 nM.
Turning to `CC[C@@]1(O)C(=O)OCc2c1cc1n(c2=O)Cc2cc3c(CN(C)C)c(O)ccc3nc2-1` [TOPOTECAN], the half-inhibitory concentration (IC50) in data set [1] was found to be 185 nM; in data set [4] it was 6 nM.
`CCc1c2c(nc3ccc(OC(=O)N4CCN(C(=O)c5ccc(COC(=O)N[C@@H](CCC(=O)N6CCN(c7cccc(NC8=NCCCN8)c7)CC6)C(=O)O)cc5)CC4)cc13)-c1cc3c(c(=O)n1C2)COC(=O)[C@]3(O)CC.Cl` had a half-life at 5 µM in data set [7] of 13 h. In addition, the Activity in data set [8] is recorded as 0%; in data set [10] it was 34%; in data set [11], 3%; in data set [12], “Non-toxic”; in data set [13], “Non-toxic”; in [14], 2.5 mm2. Moreover, the IC50 is 3400 nM in data set [1]; 37 nM in data set [2]; 89 nM in data set [3]; 33 nM in [4]; 1 nM in data set [5]; 1.3 nM in data set [6]. The “inhibition (INH)” value in data set [9] came to 39%. In addition, the MST in data set [15] stood at 63 days.
`COC(=O)c1ccc(COC(=O)N[C@@H](CCC(=O)N2CCN(c3cccc(NC4=NCCCN4)c3)CC2)C(=O)O)cc1`: the IC50 in [6] turned out to be 2.3 nM.
For the molecule `CC[C@@]1(O)C(=O)OCc2c1cc1n(c2=O)Cc2c-1nc1ccc(OC(=O)N3CCN(C(=O)c4ccc(COC(=O)N[C@@H](CCC(=O)N5CCN(c6cccc(NC7=NCCCN7)c6)CC5)C(=O)O)cc4)CC3)cc1c2/C=N/OC(C)(C)C`, the IC50 is over 1000 nM in [1]; 130 nM in [2]; 670 nM in data set [3]; 67 nM in data set [4]; 0.76 nM in data set [5]; 4.83 nM in data set [6].
